No end group written: not given here.
Columns and labels:
Type in all cases: cell-based
human opioid receptor κ = target: T1, human opioid receptor κ (Homo sapiens, UniProt P41145); experiment: Ca2+ response monitored by FLIPR, κ-expressing cells; details: κ-expressing HEK293T cells
T1 construct: expressed in transfected cells
Description: (§1) The assay was performed as reported earlier.
(§2) Potency is determined by EC50.

human opioid receptor δ = target: T2, human opioid receptor δ (Homo sapiens, UniProt P41143); experiment: Ca2+ response monitored by FLIPR, δ-expressing cells
T2 construct: expressed in transfected cells
T2 sequence (P41143 whole entry): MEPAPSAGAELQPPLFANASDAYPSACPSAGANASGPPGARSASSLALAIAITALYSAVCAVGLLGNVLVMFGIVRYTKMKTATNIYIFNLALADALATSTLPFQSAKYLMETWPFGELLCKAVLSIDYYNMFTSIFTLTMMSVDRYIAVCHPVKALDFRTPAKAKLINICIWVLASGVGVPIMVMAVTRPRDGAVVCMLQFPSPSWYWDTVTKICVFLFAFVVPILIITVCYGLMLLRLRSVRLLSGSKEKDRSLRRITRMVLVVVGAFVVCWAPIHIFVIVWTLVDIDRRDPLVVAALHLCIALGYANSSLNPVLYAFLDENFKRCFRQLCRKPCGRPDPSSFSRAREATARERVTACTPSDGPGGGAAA
Description: as §1, §2

human opioid receptor μ = target: T3, human opioid receptor μ (Homo sapiens, UniProt P35372); experiment: Ca2+ response monitored by FLIPR, μ-expressing cells; details: μ-expressing HEK293T cells
T3 construct: expressed in transfected cells
T3 sequence (P35372 whole entry): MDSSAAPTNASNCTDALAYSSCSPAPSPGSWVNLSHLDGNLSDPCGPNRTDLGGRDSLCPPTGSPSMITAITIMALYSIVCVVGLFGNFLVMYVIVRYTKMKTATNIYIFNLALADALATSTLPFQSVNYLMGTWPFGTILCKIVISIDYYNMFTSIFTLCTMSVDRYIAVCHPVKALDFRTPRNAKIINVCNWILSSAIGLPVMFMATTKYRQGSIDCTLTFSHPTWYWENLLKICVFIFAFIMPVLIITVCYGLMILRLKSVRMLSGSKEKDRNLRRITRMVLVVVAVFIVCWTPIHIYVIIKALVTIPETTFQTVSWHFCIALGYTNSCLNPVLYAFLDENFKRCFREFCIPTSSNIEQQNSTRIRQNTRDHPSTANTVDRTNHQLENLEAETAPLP
Description: as §1, §2

[1] = Gqαi3 cotransfected, Fluo-4 AM, FLIPR, mean±SE, n = 3, read-out: EC50 (intracellular Ca2+ mobilization)

T1 sequence (P41145 whole entry): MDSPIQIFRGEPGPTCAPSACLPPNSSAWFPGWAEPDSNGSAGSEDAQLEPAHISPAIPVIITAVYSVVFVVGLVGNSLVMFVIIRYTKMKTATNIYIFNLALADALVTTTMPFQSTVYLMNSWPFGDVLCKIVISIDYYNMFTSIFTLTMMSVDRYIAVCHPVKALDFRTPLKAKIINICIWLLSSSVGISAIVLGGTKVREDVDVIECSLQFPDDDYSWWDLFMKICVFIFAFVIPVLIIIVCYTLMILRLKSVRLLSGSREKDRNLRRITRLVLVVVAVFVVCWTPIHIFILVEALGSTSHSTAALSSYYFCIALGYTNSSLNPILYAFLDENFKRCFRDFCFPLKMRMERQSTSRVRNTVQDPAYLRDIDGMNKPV

Substance	EC50 (human opioid receptor κ; [1]) [µM]	Selectivity to the δ-subtype over κ (times) (human opioid receptor δ; δ versus κ, FLIPR EC50)	Selectivity to the δ-subtype over μ (times) (human opioid receptor δ; δ versus μ, FLIPR EC50)	EC50 (human opioid receptor δ; δ-expressing HEK293T cells, Gqαi3 cotransfected, Fluo-4 AM, FLIPR, mean±SE, n = 3, read-out: EC50 (intracellular Ca2+ mobilization)) [µM]	EC50 (human opioid receptor μ; [1]) [µM]	Agonist activity, in words (human opioid receptor κ; 1 nM to 50 µM)	Agonist activity, in words (human opioid receptor δ; δ-expressing HEK293T cells, 1 nM to 50 µM)	Agonist activity, in words (human opioid receptor μ; 1 nM to 50 µM)
YGGYMNPA-NH2 [BmK-YA]	30 ± 0.5	12	6.8	2.5	17	–	–	–
YGGHMNPA [His^4-BmK-YA]	–	–	–	–	–	no activity was detected	no activity was detected	no activity was detected
